Data from US10385036B2, “Sulfonamide-substituted indole modulators of RORC2 and methods of use thereof” (Pfizer Inc., priority 2015, dated 2019).
Like-named read-outs stand apart in the source and are kept apart here.

How the values were obtained:
[1] = system: IL-17 production from human Th17 cells; assay: Assay of IL-17 production from human Th17 cells; type: cell-based; conditions: 144 h
Method: The activity of compound of the invention can be also be determined by an IL-17 production from human Th17 cells assay. In general, this assay measures blockade of IL-17 production, the signature cytokine of T helper 17 (Th17) cells, by compounds. Purified human CD4+ T cells are stimulated with anti-CD3+anti-CD28 and incubated with a cytokine cocktail that induce their differentiation into Th17 in the absence or presence of various concentrations of compound. After 6 days, IL-17A concentration is measured in the cell culture supernatant with an ELISA kit (MSD).
Preparation of human CD4+ T cells. CD4+ T cells were purified from buffy coats from healthy donors (obtained from Massachusetts General Hospital) by negative selection the following procedure: Mixing 25 mL of blood with 1 mL of Rosette Sep CD4+ T cell enrichment cocktail (StemCell Technologies) followed by application of a layer of 14 mL Ficoll Paque Plus (Amersham GE Healthcare) and subsequent centrifugation at 1200 g for 20 min at room temperature. The Ficoll layer was then harvested and washed with phosphate saline buffer containing 2% (v/v) fetal bovine serum and cells were resuspended with RPMI medium containing 10% (v/v) fetal bovine serum and 10% (v/v) DMSO, frozen and kept in LN2 until used.
[…] Serial dilutions of compounds of the invention are prepared at 10× final concentration in X-Vivo15 medium containing 3% (v/v) DMSO.
On the second day of the assay, a 384-well tissue culture plate was coated with 10 μg/mL anti-hCD3 (eBioscience) at 50 μL/well. After 2 hr at 37° C., the supernatant is discarded and the coated plates are kept in a sterile tissue culture hood.
The cytokine plus anti-CD28 cocktail with CD4+ cells is prepared such that the cocktail is diluted 10-fold and cell density is 0.22×10^6/mL. The mixture is incubated 1 hr at 37° C.
90 μL (20,000 cells) dispensed per well in the anti-hCD3 coated plate prepared as noted above.
10 μL 10× compound is added per well (final DMSO=0.3%) from the compound plate that was previously prepared, followed by 6 days of incubation in a tissue culture vessel in a humidified chamber at 37° C. and 5% CO2.
Measurement is carried out in a Sector Imager 6000 by the same manufacturer. Signal units from the instrument are converted to pg/mL using a calibration curve with known amounts of IL-17A. IC50 values of test compounds (Table 2) are determined by the non-linear regression analysis of dose response curves.

[2] = biological target: RORC2 ligand binding domain (6-His-RORC2 LBD) (Homo sapiens (Human), UniProt P51449); assay: Assay of co-activator recruitment by TR-FRET; type: biochemical; conditions: 6-His-RORC2 LBD / biotin-coactivator peptide SRC1-2 interaction, 3 hr room temperature
Method: The activity of compound of the invention can be determined by a co-activator recruitment by TR-FRET (time-resolved fluorescence resonance energy transfer) assay. […] When receptor and coactivator are bound to each other, upon shining light at 337 nm on the sample, the Europium emits fluorescence that excites APC due to close proximity (FRET) and this signal is measured at 665 nm. Due to the long lasting fluorescence emission of Europium, the non-specific, short-lived fluorescence is time-resolved (TR) from the fluorescence of interest. Inhibitors of the interaction of receptor and coactivator peptide are detected by a decrease in TR-FRET signal.
Specifically, in one embodiment the aforementioned assay was performed as outlined below. The assay was carried out in black polystyrene, 384-well plates in a total assay volume of 50.5 μL. The assay buffer contained 50 mM TRIS-HCL pH 7.5, 1 mM NaCl, 2 mM MgCl2, 0.5 mg/mL bovine serum albumin, and 5 mM dithiothreitol.

[3] = IL-17A in supernatant by ELISA (MSD) after 6 days, human CD4+ T cells differentiated into Th17, read-out: IC50

Sequence of RORC2 ligand binding domain (6-His-RORC2 LBD) (P51449 269-508): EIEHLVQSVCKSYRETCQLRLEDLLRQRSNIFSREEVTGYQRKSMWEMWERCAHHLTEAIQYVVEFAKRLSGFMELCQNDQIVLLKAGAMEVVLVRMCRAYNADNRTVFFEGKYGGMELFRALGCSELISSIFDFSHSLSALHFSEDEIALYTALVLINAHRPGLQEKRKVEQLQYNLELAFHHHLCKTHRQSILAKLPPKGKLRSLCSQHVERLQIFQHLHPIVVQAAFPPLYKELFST

IC50 ([1]; Homo sapiens, CD4+ T) [nM]	IC50 [2] [nM]	IC50 [1, 3] [nM]	Compound
–	2.5	3.3	Cc1nn(C)c(C)c1S(=O)(=O)Nc1ccc2c(c1)c([C@@H]1CCN(C(=O)[C@H](C)C3CCCC3)C[C@@H]1C)cn2C (single isomer, unassigned) [Example 32]
–	1.1	8.4	CCOc1ccccc1S(=O)(=O)Nc1ccc2c(c1)c([C@@H]1CCN(C(=O)[C@H](C)C3CCCC3)C[C@@H]1C)cn2C (single isomer, unassigned) [Example 33]
4.2	–	–	C[C@@H](C(=O)N1CC[C@@H](c2cn(C)c3ccc(NS(=O)(=O)c4ccccc4F)cc23)[C@@H](C)C1)C1CCCC1 (single isomer, unassigned) [Example 34]
8.4	–	–	Cc1ccc(F)c(S(=O)(=O)Nc2ccc3c(c2)c([C@@H]2CCN(C(=O)[C@H](C)C4CCCC4)C[C@@H]2C)cn3C)c1 (single isomer, unassigned) [Example 35]
10.6	–	–	Cc1ccc(S(=O)(=O)Nc2ccc3c(c2)c(C2CCN(C(=O)[C@H](C)C(C)(C)C)CC2)cn3C)cc1 [Example 25, (R)-4-methyl-N-(1-methyl-3-(1-(2,3,3-trimethylbutanoyl)piperidin-4-yl)-1H-indol-5-yl)benzenesulfonamide]
16	–	–	CCOc1ccccc1S(=O)(=O)Nc1ccc2c(c1)c(C1CCN(C(=O)[C@H](C)C(C)(C)C)CC1)cn2C [Example 27, (R)-2-ethoxy-N-(1-methyl-3-(1-(2,3,3-trimethylbutanoyl)piperidin-4-yl)-1H-indol-5-yl)benzenesulfonamide]
11.4	–	–	C[C@@H](C(=O)N1CCC(c2cn(C)c3ccc(NS(=O)(=O)c4ccccc4F)cc23)CC1)C(C)(C)C [Example 28, (R)-2-fluoro-N-(1-methyl-3-(1-(2,3,3-trimethylbutanoyl)piperidin-4-yl)-1H-indol-5-yl)benzenesulfonamide]
28.5	–	–	C[C@@H](C(=O)N1CCC(c2cn(C)c3ccc(NS(=O)(=O)c4ccccc4)cc23)CC1)C(C)(C)C [Example 29, (R)-N-(1-methyl-3-(1-(2,3,3-trimethylbutanoyl)piperidin-4-yl)-1H-indol-5-yl)benzenesulfonamide]

More lines, now with the values behind:

Compound	IC50 ([1]; Homo sapiens, CD4+ T) [nM]	IC50 [2] [nM]	IC50 [1, 3] [nM]
C[C@H]1CN(C(=O)C2CCCC2)CC[C@H]1c1cn(C)c2ccc(NS(=O)(=O)c3ccc(F)cc3)cc12 (single isomer, unassigned) [Example 3]	121	–	–
C[C@@H]1CN(C(=O)C2CCCC2)CC[C@@H]1c1cn(C)c2ccc(NS(=O)(=O)c3ccc(F)cc3)cc12 (single isomer, unassigned) [Example 4]	137	–	–
CC(C)C(=O)N1CC[C@@H](c2cn(C)c3ccc(NS(=O)(=O)c4ccc(F)cc4)cc23)[C@@H](C)C1 (single isomer, unassigned) [Example 5]	–	5.1	90.3
CC(C)C(=O)N1CC[C@@H](c2cn(C)c3ccc(NS(=O)(=O)c4ccc(F)cc4)cc23)CC1(C)C (single isomer, unassigned) [Example 18]	–	7	19
Cn1cc([C@@H]2CCN(C(=O)C3CCCC3)C(C)(C)C2)c2cc(NS(=O)(=O)c3ccc(F)cc3)ccc21 (single isomer, unassigned) [Example 19]	–	3.7	191
C[C@H]1CN(C(=O)[C@H](C)C(C)(C)C)CC[C@H]1c1cn(C)c2ccc(NS(=O)(=O)c3ccc(F)cc3)cc12 [Example 1, 4-fluoro-N-(1-methyl-3-((3R,4R)-3-methyl-1-((R)-2,3,3-trimethylbutanoyl)piperidin-4-yl)-1H-indol-5-yl)benzenesulfonamide]	–	8.2	13.5
C[C@@H](C(=O)N1CC[C@@H](c2cn(C)c3ccc(NS(=O)(=O)c4ccc(F)cc4)cc23)[C@@H](C)C1)C1CCCC1 [Example 2, N-(3-((3R,4R)-1-((R)-2-cyclopentylpropanoyl)-3-methylpiperidin-4-yl)-1-methyl-1H-indol-5-yl)-4-fluorobenzenesulfonamide]	4.8	–	–
Cn1cc(C2CCN(C(=O)c3ccns3)CC2)c2cc(NS(=O)(=O)c3ccc(F)cc3)ccc21 [Example 6, 4-fluoro-N-(3-(1-(isothiazole-5-carbonyl)piperidin-4-yl)-1-methyl-1H-indol-5-yl)benzenesulfonamide]	–	75.9	276
C[C@@H](C(=O)N1CCC(c2cn(C)c3ccc(NS(=O)(=O)c4ccc(F)cc4)cc23)CC1)C1CCCC1 [Example 7, (R)-N-(3-(1-(2-cyclopentylpropanoyl)piperidin-4-yl)-1-methyl-1H-indol-5-yl)-4-fluorobenzenesulfonamide]	–	4.5	28.1
Cn1cc(C2CCN(C(=O)C3CC3)CC2)c2cc(NS(=O)(=O)c3ccc(F)cc3)ccc21 [Example 8, N-(3-(1-(cyclopropanecarbonyl)piperidin-4-yl)-1-methyl-1H-indol-5-yl)-4-fluorobenzenesulfonamide]	–	17.1	184
CC(CC(=O)N1CCC(c2cn(C)c3ccc(NS(=O)(=O)c4ccc(F)cc4)cc23)CC1)C(F)(F)F (stereo not drawn) [Example 9, 4-fluoro-N-(1-methyl-3-(1-(4,4,4-trifluoro-3-methylbutanoyl)piperidin-4-yl)-1H-indol-5-yl)benzenesulfonamide]	–	14.8	99.1
C[C@@H](C(=O)N1CCC(c2cn(C)c3ccc(NS(=O)(=O)c4ccc(F)cc4)cc23)CC1)C(C)(C)C [Example 10, (R)-4-fiuoro-N-(1-methyl-3-(1-(2,3,3-trimethylbutanoyl)piperidin-4-yl)-1H-indol-5-yl)benzenesulfonamide]	29	–	–
Cn1cc(C2CCN(C(=O)C3CCC3)CC2)c2cc(NS(=O)(=O)c3ccc(F)cc3)ccc21 [Example 11, N-(3-(1-(cyclobutanecarbonyl)piperidin-4-yl)-1-methyl-1H-indol-5-yl)-4-fluorobenzenesulfonamide]	–	28.8	148
CC(C)CC(=O)N1CCC(c2cn(C)c3ccc(NS(=O)(=O)c4ccc(F)cc4)cc23)CC1 [Example 12, 4-Fluoro-N-(1-methyl-3-(1-(3-methylbutanoyl)piperidin-4-yl)-1H-indol-5-yl)benzenesulfonamide]	–	7.8	127
Cn1cc(C2CCN(C(=O)C3CCCCC3)CC2)c2cc(NS(=O)(=O)c3ccc(F)cc3)ccc21 [Example 14, N-(3-(1-(cyclohexanecarbonyl)-piperidin-4-yl)-1-methyl-1H-indol-5-yl)-4-fluorobenzenesulfonamide]	221	–	–
C[C@H]1C[C@@H](c2cn(C)c3ccc(NS(=O)(=O)c4ccc(F)cc4)cc23)CCN1C(=O)C1CCCC1 [Example 20, N-(3-((2S,4S)-1-(cyclopentanecarbonyl)-2-methylpiperidin-4-yl)-1-methyl-1H-indol-5-yl)-4-fluorobenzenesulfonamide]	633	–	–
C[C@H]1C[C@H](c2cn(C)c3ccc(NS(=O)(=O)c4ccc(F)cc4)cc23)CCN1C(=O)C1CCCC1 [Example 21, N-(3-((2S,4R)-1-(cyclopentanecarbonyl)-2-methylpiperidin-4-yl)-1-methyl-1H-indol-5-yl)-4-fluorobenzenesulfonamide]	88.7	–	–
CC(C)C(=O)N1CCC(c2cn(C)c3ccc(NS(=O)(=O)c4ccc(F)c(O)c4)cc23)CC1 [Example 23, 4-fluoro-3-hydroxy-N-(3-(1-isobutyrylpiperidin-4-yl)-1-methyl-1H-indol-5-yl)benzenesulfonamide]	1460	–	–
CC(C)C(=O)N1CCC(c2cn(C)c3ccc(NS(=O)(=O)c4ccc(F)c(O[C@@H]5CCOC5)c4)cc23)CC1 [Example 24, (R)-4-fluoro-N-(3-(1-isobutyrylpiperidin-4-yl)-1-methyl-1H-indol-5-yl)-3-((tetrahydrofuran-3-yl)oxy)benzenesulfonamide]	69.5	–	–
